Experimental data reported in patent US20170291890A1 (Epizyme, Inc., priority 2014, published 2017).

Biological target: T1, KDM4C (Homo sapiens, UniProt Q9H3R0)
T1 construct: N-terminal GST-tagged KDM4C^2-372 was purchased from BPS Biosciences; GST (N); purchased BPS Biosciences
T1 sequence (Q9H3R0 2-372): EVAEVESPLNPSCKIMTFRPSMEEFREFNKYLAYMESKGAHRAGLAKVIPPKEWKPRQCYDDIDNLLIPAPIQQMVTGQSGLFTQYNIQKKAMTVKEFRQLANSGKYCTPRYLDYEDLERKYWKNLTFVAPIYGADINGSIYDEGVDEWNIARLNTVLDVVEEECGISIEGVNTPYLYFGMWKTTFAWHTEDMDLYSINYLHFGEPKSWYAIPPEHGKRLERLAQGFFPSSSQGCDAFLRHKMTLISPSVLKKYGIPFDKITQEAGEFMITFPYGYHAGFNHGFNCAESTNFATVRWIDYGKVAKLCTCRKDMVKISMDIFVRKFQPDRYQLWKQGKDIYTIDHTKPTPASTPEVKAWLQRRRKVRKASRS
Assay: KDM4C Assay (SAMDI mass spectrometry demethylase assay)
Format: biochemical
Settings: N-terminal GST-tagged KDM4C 2-372; class symbols; read-out: 4C IC50
Protocol: N-terminal GST-tagged KDM4C^2-372 was purchased from BPS Biosciences. Peptides were synthesized by BioPeptide and all other reagents were purchased from Sigma-Aldrich at the highest level of purity possible. Assays were performed in a 50 μL volume in 384-well V-bottom polypropylene microplates (Greiner) at 25° C. Optimized 1× assay buffer was 50 mM HEPES (pH=8.0), 100 μM sodium ascorbate, 20 mM NaCl, 10 μM ammonium iron sulfate, 1 mM tris(2-carboxyethyl)phosphine (TCEP), 0.002% Tween-20, and 0.005% BSG. For compound screening, 35 μL of KDM4C^2-372 (final concentration, f.c.=5 nM) was added using a Multidrop Combi and preincubated with 1 μL of test compound (f.c.=10 μM) for 30 minutes and subsequently 15 μL of peptide with the following sequence NH2-ARTKQTAR(Kme3)STGGKAPRKQLA(K-Ahx-Biotin)-amide (f.c.=500 nM) and 2-oxoglutarate (f.c.=15 μM) was added by Multidrop Combi to begin the reaction. Reactions proceeded for 150 minutes and were stopped by the addition of 5 μL of formic acid (f.c.=0.5%) using a Multidrop Combi and then analyzed by SAMDI Tech Inc.
SAMDI Tech analyzed all reactions using self-assembled monoloayer desorption/ionization technology as previously described (Gerard-Levin Z A, Scholle M D, Eisenberg A H, et al.: High-throughput screening of small molecule libraries using SAMDI mass spectrometry. ACS Comb Sci 2011; 13:347-350). Briefly, a 2 μL sample of the stopped demethylase reactions were transferred to a SAMDI array coated with 384 biotin-neutravidin spots using a 384-channel pipet station. The SAMDI arrays were incubated for 1 h in a humidified chamber, followed by washing of the surface with deionized ultra-filtered water (DIUF) and drying under nitrogen. A matrix of 30 mg/ml 2′,4′,6′-Trihydroxyacetophenone monohydrate (THAP) in acetone was applied using a TPP Mosquito 1.2 μL tip by dispensing 50 nL on each of the 384 spots on the array. SAMDI-MS was run using acquisition method ReflectorPositiveUTX. The % conversion of substrate to product was calculated using the AUC of the substrate and product peptide peaks.
An IC50 value was determined by contacting various concentrations of a test compound with one of the KDM4A, KDM4C or KDMSC enzyme constructs and plotting a dose-response curve which associates the amount of inhibition of the enzyme relative to the concentration of the test compound. From the curve, the IC50 value (which represents the concentration of the test compound necessary to inhibit maximal enzymatic activity by 50%) was determined. Additionally, the slope of the linear range of the plotted curve, which indicates the speed with which the curve rises between the minimum and maximum, was calculated.

Q: With `Cc1c(Nc2cnccc2C(=O)O)cnn1Cc1ccccc1` [Compound 33, 3-((1-benzyl-5-methyl-1H-pyrazol-4-yl)amino)isonicotinic acid] as the compound, how does the IC50 read?
A: 1 to 100 nM

Q: How did the IC50 turn out when `Cc1cc(Nc2cnccc2C(=O)O)nn1-c1ccccc1` [Compound 60, 3-((5-methyl-1-phenyl-1H-pyrazol-3-yl)amino)isonicotinic acid] was run?
A: 100 to 1000 nM

Q: Which IC50 does the source give for `O=C(O)c1ccncc1Nc1nn(CCC(F)(F)F)cc1-c1ccncc1` [Compound 74, 3-((4-(pyridin-4-yl)-1-(3,3,3-trifluoropropyl)-1H-pyrazol-3-yl)amino)isonicotinic acid] here?
A: 100 to 1000 nM

Q: Which IC50 does the source give for `Cc1nn(C2CCN(C(C)C)CC2)cc1Nc1cnccc1C(=O)O` [Compound 102, 3-((1-(1-isopropylpiperidin-4-yl)-3-methyl-1H-pyrazol-4-yl)amino)isonicotinic acid] here?
A: 100 to 1000 nM

Q: How did the IC50 turn out when `CN(C)CCn1ncc(-c2ccccc2)c1Nc1cnccc1C(=O)O` [Compound 65, 3-((1-(2-(dimethylamino)ethyl)-4-phenyl-1H-pyrazol-5-yl)amino)isonicotinic acid] was run?
A: 1000 to 10000 nM

Q: `Cn1nc(-c2cccc(Cl)c2)cc1Nc1cnccc1C(=O)O` [Compound 25, 3-((3-(3-chlorophenyl)-1-methyl-1H-pyrazol-5-yl)amino) isonicotinic acid] was tested. Which IC50 did it give?
A: 1000 to 10000 nM

Q: With `CN1CCN(CCn2cc(-c3ccccc3)c(Nc3cnccc3C(=O)O)n2)CC1` [Compound 34, 3-((1-(2-(4-Methylpiperazin-1-yl)ethyl)-4-phenyl-1H-pyrazol-3-yl)amino)isonicotinic acid] as the compound, how does the IC50 read?
A: 10000 to 100000 nM

Q: How did the IC50 turn out when `O=C(O)c1ccncc1Nc1nn(CCC(F)(F)F)cc1-c1ccccc1` [Compound 73, 3-((4-phenyl-1-(3,3,3-trifluoropropyl)-1H-pyrazol-3-yl)amino) isonicotinic acid] was run?
A: 100 to 1000 nM

Q: For `Cn1cc(-c2cccc(F)c2)c(Nc2cnccc2C(=O)O)n1` [Compound 9, 3-((4-(3-Fluorophenyl)-1-methyl-1H-pyrazol-3-yl)amino) isonicotinic acid], which IC50 is on record?
A: 100 to 1000 nM

Q: How did the IC50 turn out when `Cc1c(Nc2cnccc2C(=O)O)cnn1[C@H]1CC[C@@H](N)CC1` [Compound 79, 3-((1-((cis)-4-aminocyclohexyl)-5-methyl-1H-pyrazol-4-yl)amino)isonicotinic acid] was run?
A: 1 to 100 nM

Q: How did the IC50 turn out when `Cn1ncc(-c2ccc(F)cc2)c1Nc1cnccc1C(=O)O` [Compound 8, 3-((4-(4-fluorophenyl)-1-methyl-1H-pyrazol-5-yl)amino) isonicotinic acid] was run?
A: 1000 to 10000 nM

Q: For `Cc1cn(-c2ccccc2)c(Nc2cnccc2C(=O)O)n1` [Compound 2], which IC50 is on record?
A: 100 to 1000 nM

Q: Which IC50 does the source give for `COC(=O)c1ccncc1Nc1cn(C2CCN(C(C)C)CC2)nc1C` [Compound 101, methyl 3-((1-(1-isopropylpiperidin-4-yl)-3-methyl-1H-pyrazol-4-yl)amino)isonicotinate] here?
A: 10000 to 100000 nM

Q: How did the IC50 turn out when `N[C@H]1CC[C@@H](n2nc(-c3ccccc3)cc2Nc2cnccc2C(=O)O)CC1` [Compound 37, 3-((1-((cis)-4-aminocyclohexyl)-3-phenyl-1H-pyrazol-5-yl)amino)isonicotinic acid] was run?
A: 100 to 1000 nM

Q: How did the IC50 turn out when `Cc1nn(C2CCN(C(=O)c3ccccc3)CC2)cc1Nc1cnccc1C(=O)O` [Compound 97, 3-(1-(1-benzoylpiperidin-4-yl)-3-methyl-1H-pyrazol-4-ylamino) isonicotinic acid] was run?
A: 1000 to 10000 nM

Q: `Cc1nn(C2CCCNCC2)cc1Nc1cnccc1C(=O)O` (single isomer, unassigned) [Compound 114] was tested. Which IC50 did it give?
A: 100 to 1000 nM

Q: Which IC50 does the source give for `NCCn1nc(-c2ccccc2)cc1Nc1cnccc1C(=O)O` [Compound 26] here?
A: 1000 to 10000 nM

Q: For `Cc1cn(-c2ccccc2)nc1Nc1cnccc1C(=O)O` [Compound 62, 3-((4-methyl-1-phenyl-1H-pyrazol-3-yl)amino) isonicotinic acid], which IC50 is on record?
A: 1 to 100 nM

Q: For `Cc1nn(C2CCCN(C)CC2)cc1Nc1cnccc1C(=O)O` (stereo not drawn) [Compound 111, 3-(3-methyl-1-(1-methylazepan-4-yl)-1H-pyrazol-4-ylamino) isonicotinic acid], which IC50 is on record?
A: 100 to 1000 nM

Q: For `O=C(O)c1ccncc1Nc1nn(CCN2CCC(F)(F)CC2)cc1-c1ccccc1` [Compound 14, 3-((1-(2-(4,4-Difluoropiperidin-1-yl)ethyl)-4-phenyl-1H-pyrazol-3-yl)amino)isonicotinic acid], which IC50 is on record?
A: 100 to 1000 nM

Q: For `O=C(O)c1ccncc1Nc1nn(CCN2CCC(F)(F)CC2)cc1-c1ccc(F)cc1` [Compound 45, 3-((1-(2-(4,4-difluoropiperidin-1-yl)ethyl)-4-(4-fluorophenyl)-1H-pyrazol-3-yl)amino)isonicotinic acid], which IC50 is on record?
A: 100 to 1000 nM

Q: With `COc1ccc(-n2nc(C)c(Nc3cnccc3C(=O)O)c2C)cc1` [Compound 75, 3-((1-(4-methoxyphenyl)-3,5-dimethyl-1H-pyrazol-4-yl)amino)isonicotinic acid] as the compound, how does the IC50 read?
A: 1000 to 10000 nM

Q: `Cc1n[nH]c(-c2ccccc2)c1Nc1cnccc1C(=O)O` [Compound 55, 3-((5-methyl-3-phenyl-1H-pyrazol-4-yl)amino)isonicotinic acid] was tested. Which IC50 did it give?
A: 1000 to 10000 nM

Q: Which IC50 does the source give for `Cc1nn(C2CCN(CC(F)(F)F)CC2)cc1Nc1cnccc1C(=O)O` [Compound 99, 3-(3-methyl-1-(1-(2,2,2-trifluoroethyl)piperidin-4-yl)-1H-pyrazol-4-ylamino)isonicotinic acid] here?
A: 1000 to 10000 nM

Q: Which IC50 does the source give for `CN(C)CCCn1ncc(-c2ccccc2)c1Nc1cnccc1C(=O)O` [Compound 52, 3-((1-(3-(dimethylamino)propyl)-4-phenyl-1H-pyrazol-5-yl)amino) isonicotinic acid] here?
A: 10000 to 100000 nM

Q: `Cn1ncc(-c2ccccc2)c1Nc1cnccc1C(=O)O` [Compound 1] was tested. Which IC50 did it give?
A: 100 to 1000 nM

Q: `COC(=O)c1ccncc1Nc1cnn(C2CCN(C(C)C)CC2)c1C` [Compound 103, methyl 3-((1-(1-isopropylpiperidin-4-yl)-5-methyl-1H-pyrazol-4-yl)amino)isonicotinate] was tested. Which IC50 did it give?
A: 10000 to 100000 nM

Q: For `Cc1c(Nc2cnccc2C(=O)O)cnn1C1CCN(C(C)C)CC1` [Compound 104], which IC50 is on record?
A: 100 to 1000 nM

Q: With `O=C(O)c1ccncc1Nc1cnn(CCN2CCC(F)(F)CC2)c1-c1ccccc1` [Compound 18, 3-((1-(2-(4,4-difluoropiperidin-1-yl)ethyl)-5-phenyl-1H-pyrazol-4-yl)amino)isonicotinic acid] as the compound, how does the IC50 read?
A: 100 to 1000 nM

Q: Which IC50 does the source give for `Cc1nn(-c2ccccc2C#N)cc1Nc1cnccc1C(=O)O` [Compound 70, 3-((1-(2-cyanophenyl)-3-methyl-1H-pyrazol-4-yl)amino) isonicotinic acid] here?
A: 1000 to 10000 nM

Q: With `Cc1n[nH]c(C)c1Nc1cnccc1C(=O)O` [Compound 16, 3-((3,5-Dimethyl-1H-pyrazol-4-yl)amino)isonicotinic acid] as the compound, how does the IC50 read?
A: 10000 to 100000 nM

Q: `Cc1c(Nc2cnccc2C(=O)O)cnn1C1CCN(CC(F)(F)F)CC1` [Compound 100, 3-(5-methyl-1-(1-(2,2,2-tri-fluoro-ethyl)piperidin-4-yl)-1H-pyrazol-4-ylamino)isonicotinic acid] was tested. Which IC50 did it give?
A: 100 to 1000 nM

Q: For `CCn1nc(-c2ccccc2)cc1Nc1cnccc1C(=O)O` [Compound 36, 3-((1-Ethyl-3-phenyl-1H-pyrazol-5-yl)amino)isonicotinic acid], which IC50 is on record?
A: 100 to 1000 nM

Q: For `Cc1nn(-c2ccccc2)c(C)c1Nc1cnccc1C(=O)O` [Compound 77, 3-((3,5-dimethyl-1-phenyl-1H-pyrazol-4-yl)amino)isonicotinic acid], which IC50 is on record?
A: 100 to 1000 nM

Q: `Cc1c(Nc2cnccc2C(=O)O)nn(CCN2CCC(F)(F)CC2)c1-c1ccccc1` [Compound 67, 3-((1-(2-(4,4-difluoropiperidin-1-yl)ethyl)-4-methyl-5-phenyl-1H-pyrazol-3-yl)amino)isonicotinic acid] was tested. Which IC50 did it give?
A: 100 to 1000 nM

Q: With `COCCn1nc(-c2ccccc2)cc1Nc1cnccc1C(=O)O` [Compound 27, 3-((1-(2-Methoxyethyl)-3-phenyl-1H-pyrazol-5-yl)amino) isonicotinic acid] as the compound, how does the IC50 read?
A: 100 to 1000 nM
